Assay results taken from PubChem BioAssay (NCI).
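Interpolation was linear, between the two tested concentrations surrounding the appropriate level; five concentrations were tested over 48 hours in 96-well plates. The concentration for full growth arrest is given as TGI.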

Assays:
Assay in all cases: growth of human tumour cells (NCI), 48 h
NCI-H23 lung = system: NCI-H23 lung
LOX IMVI melanoma = system: LOX IMVI melanoma
SR leukemia = system: SR leukemia
UO-31 renal = system: UO-31 renal
NCI-H522 lung = system: NCI-H522 lung
HCC-2998 colon = system: HCC-2998 colon
OVCAR-8 ovarian = system: OVCAR-8 ovarian
MCF7 breast = system: MCF7 breast
MDA-N = system: MDA-N
786-0 renal = system: 786-0 renal
RPMI-8226 leukemia = system: RPMI-8226 leukemia
KM12 colon = system: KM12 colon
SNB-75 CNS = system: SNB-75 CNS
HS 578T breast = system: HS 578T breast
TK-10 renal = system: TK-10 renal
U251 CNS = system: U251 CNS
NCI-H460 lung = system: NCI-H460 lung
SK-MEL-28 melanoma = system: SK-MEL-28 melanoma
DU-145 prostate = system: DU-145 prostate
SK-MEL-5 melanoma = system: SK-MEL-5 melanoma
UACC-62 melanoma = system: UACC-62 melanoma
HOP-62 NSCLC = system: HOP-62 NSCLC
SW-620 colon = system: SW-620 colon
HCT-15 colon = system: HCT-15 colon
SF-539 CNS = system: SF-539 CNS
MALME-3M melanoma = system: MALME-3M melanoma
SK-OV-3 ovarian = system: SK-OV-3 ovarian
A498 renal = system: A498 renal
PC-3 prostate = system: PC-3 prostate
OVCAR-3 ovarian = system: OVCAR-3 ovarian
BT-549 breast = system: BT-549 breast
UACC-257 melanoma = system: UACC-257 melanoma
NCI-H226 lung = system: NCI-H226 lung
SF-268 CNS = system: SF-268 CNS
HT29 colon = system: HT29 colon
MDA-MB-435 = system: MDA-MB-435
A549 NSCLC = system: A549 NSCLC
K-562 leukemia = system: K-562 leukemia
T-47D breast = system: T-47D breast
MOLT-4 leukemia = system: MOLT-4 leukemia
SK-MEL-2 melanoma = system: SK-MEL-2 melanoma
EKVX NSCLC = system: EKVX NSCLC
HL-60(TB) leukemia = system: HL-60(TB) leukemia
NCI/ADR-RES ovarian = system: NCI/ADR-RES ovarian
COLO 205 colon = system: COLO 205 colon
HCT-116 colon = system: HCT-116 colon
CCRF-CEM leukemia = system: CCRF-CEM leukemia
SF-295 CNS = system: SF-295 CNS
OVCAR-5 ovarian = system: OVCAR-5 ovarian
IGROV1 ovarian = system: IGROV1 ovarian
MDA-MB-231 breast = system: MDA-MB-231 breast
CAKI-1 renal = system: CAKI-1 renal
SNB-19 CNS = system: SNB-19 CNS
M14 melanoma = system: M14 melanoma
ACHN renal = system: ACHN renal
RXF 393 renal = system: RXF 393 renal
SN12C renal = system: SN12C renal
OVCAR-4 ovarian = system: OVCAR-4 ovarian

Work on `CCOC1=NC(C(F)(F)F)(C(F)(F)F)N=C(/N=C(/N)N(C)C(C(C)C)P(=O)(OC(C)C)OC(C)C)O1` (stereo not drawn) yielded a TGI (NCI-H23 lung) of over 100 µM, a TGI (LOX IMVI melanoma) of over 100 µM and a TGI (SR leukemia) of over 100 µM. For the same molecule, the TGI (UO-31 renal) was over 100 µM, the TGI (NCI-H522 lung) was 93.3 µM and the TGI (HCC-2998 colon) was over 100 µM. It also gave a TGI (OVCAR-8 ovarian) of over 100 µM, a TGI (MCF7 breast) of over 100 µM and a TGI (MDA-N) of over 100 µM. It also gave a TGI (786-0 renal) of over 100 µM, a TGI (RPMI-8226 leukemia) of over 100 µM and a TGI (KM12 colon) of over 100 µM. For the same molecule, the TGI (SNB-75 CNS) was over 100 µM, the TGI (HS 578T breast) was over 100 µM and the TGI (TK-10 renal) was over 100 µM. The TGI (U251 CNS) was over 100 µM, the TGI (NCI-H460 lung) was over 100 µM and the TGI (SK-MEL-28 melanoma) was over 100 µM. The TGI (DU-145 prostate) was over 100 µM, the TGI (SK-MEL-5 melanoma) was over 100 µM and the TGI (UACC-62 melanoma) was over 100 µM. It also gave a TGI (HOP-62 NSCLC) of over 100 µM, a TGI (SW-620 colon) of over 100 µM and a TGI (HCT-15 colon) of over 100 µM. For the same molecule, the TGI (SF-539 CNS) was over 100 µM, the TGI (MALME-3M melanoma) was over 100 µM and the TGI (SK-OV-3 ovarian) was over 100 µM. For the same molecule, the TGI (A498 renal) was over 100 µM, the TGI (PC-3 prostate) was over 100 µM and the TGI (OVCAR-3 ovarian) was over 100 µM. The TGI (BT-549 breast) was over 100 µM, the TGI (UACC-257 melanoma) was over 100 µM and the TGI (NCI-H226 lung) was over 100 µM. For the same molecule, the TGI (SF-268 CNS) was over 100 µM, the TGI (HT29 colon) was over 100 µM and the TGI (MDA-MB-435) was over 100 µM. The TGI (A549 NSCLC) was over 100 µM, the TGI (K-562 leukemia) was over 100 µM and the TGI (T-47D breast) was over 100 µM. It also gave a TGI (MOLT-4 leukemia) of 51.4 µM, a TGI (SK-MEL-2 melanoma) of over 100 µM and a TGI (EKVX NSCLC) of over 100 µM. It also gave a TGI (HL-60(TB) leukemia) of 80.1 µM, a TGI (NCI/ADR-RES ovarian) of over 100 µM and a TGI (COLO 205 colon) of over 100 µM. For the same molecule, the TGI (HCT-116 colon) was over 100 µM, the TGI (CCRF-CEM leukemia) was 83.5 µM and the TGI (SF-295 CNS) was over 100 µM. The TGI (OVCAR-5 ovarian) was over 100 µM, the TGI (IGROV1 ovarian) was over 100 µM and the TGI (MDA-MB-231 breast) was over 100 µM. It also gave a TGI (CAKI-1 renal) of over 100 µM, a TGI (SNB-19 CNS) of over 100 µM and a TGI (M14 melanoma) of over 100 µM. The TGI (ACHN renal) was over 100 µM, the TGI (RXF 393 renal) was over 100 µM and the TGI (SN12C renal) was over 100 µM.
In the case of `CSc1c(C#N)c(=O)n(N)c2n[nH]c(C)c12`, the TGI (NCI-H23 lung) is reported as over 100 µM, the TGI (LOX IMVI melanoma) is reported as over 100 µM and the TGI (SR leukemia) is reported as over 100 µM. The TGI (UO-31 renal) was over 100 µM, the TGI (NCI-H522 lung) was over 100 µM and the TGI (HCC-2998 colon) was over 100 µM. The TGI (OVCAR-8 ovarian) was over 100 µM, the TGI (MCF7 breast) was over 100 µM and the TGI (MDA-N) was over 100 µM. It also gave a TGI (786-0 renal) of over 100 µM, a TGI (RPMI-8226 leukemia) of over 100 µM and a TGI (KM12 colon) of over 100 µM. For the same molecule, the TGI (SNB-75 CNS) was over 100 µM, the TGI (HS 578T breast) was over 100 µM and the TGI (TK-10 renal) was over 100 µM. It also gave a TGI (U251 CNS) of over 100 µM, a TGI (NCI-H460 lung) of over 100 µM and a TGI (SK-MEL-28 melanoma) of over 100 µM. For the same molecule, the TGI (DU-145 prostate) was over 100 µM, the TGI (SK-MEL-5 melanoma) was over 100 µM and the TGI (UACC-62 melanoma) was over 100 µM. For the same molecule, the TGI (SW-620 colon) was over 100 µM, the TGI (HCT-15 colon) was over 100 µM and the TGI (SF-539 CNS) was over 100 µM. The TGI (OVCAR-4 ovarian) was over 100 µM, the TGI (MALME-3M melanoma) was over 100 µM and the TGI (SK-OV-3 ovarian) was over 100 µM. For the same molecule, the TGI (A498 renal) was over 100 µM, the TGI (PC-3 prostate) was over 100 µM and the TGI (BT-549 breast) was over 100 µM. The TGI (UACC-257 melanoma) was over 100 µM, the TGI (NCI-H226 lung) was over 100 µM and the TGI (SF-268 CNS) was over 100 µM. For the same molecule, the TGI (HT29 colon) was over 100 µM, the TGI (MDA-MB-435) was over 100 µM and the TGI (A549 NSCLC) was over 100 µM. The TGI (K-562 leukemia) was over 100 µM, the TGI (T-47D breast) was over 100 µM and the TGI (MOLT-4 leukemia) was over 100 µM. The TGI (SK-MEL-2 melanoma) was over 100 µM, the TGI (EKVX NSCLC) was over 100 µM and the TGI (HL-60(TB) leukemia) was over 100 µM. It also gave a TGI (NCI/ADR-RES ovarian) of over 100 µM, a TGI (COLO 205 colon) of over 100 µM and a TGI (HCT-116 colon) of over 100 µM. For the same molecule, the TGI (CCRF-CEM leukemia) was over 100 µM, the TGI (MDA-MB-231 breast) was over 100 µM and the TGI (CAKI-1 renal) was over 100 µM. The TGI (SNB-19 CNS) was over 100 µM, the TGI (RXF 393 renal) was over 100 µM and the TGI (SN12C renal) was over 100 µM.
